Measurements as given in patent publication US11098032B2, “Pyran dervatives as CYP11A1 (cytochrome P450 monooxygenase 11A1) inhibitors” (ORION CORPORATION, priority 2016, dated 2021).

Molecular target: T1, CYP11A1 (Homo sapiens, UniProt P05108)
T1 construct: human H295R adrenocortical carcinoma cell line was used as source of enzyme; endogenous in cells; host or cells: H295R human adrenocortical carcinoma cells
T1 sequence (P05108 40-521): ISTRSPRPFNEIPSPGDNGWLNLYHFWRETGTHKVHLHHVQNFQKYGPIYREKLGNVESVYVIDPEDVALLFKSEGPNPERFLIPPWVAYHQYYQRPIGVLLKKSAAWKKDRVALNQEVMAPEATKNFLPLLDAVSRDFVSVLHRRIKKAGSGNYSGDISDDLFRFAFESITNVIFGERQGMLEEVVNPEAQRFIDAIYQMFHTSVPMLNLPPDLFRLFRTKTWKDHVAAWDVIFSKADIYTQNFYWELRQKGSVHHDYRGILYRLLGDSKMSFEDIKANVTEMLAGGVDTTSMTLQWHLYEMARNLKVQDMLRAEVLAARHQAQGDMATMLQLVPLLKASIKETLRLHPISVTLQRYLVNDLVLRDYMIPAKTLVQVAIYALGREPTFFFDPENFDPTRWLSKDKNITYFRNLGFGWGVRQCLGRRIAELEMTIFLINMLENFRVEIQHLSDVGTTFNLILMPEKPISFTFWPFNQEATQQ
Test: CYP11A1 inhibition: modified isocaproic acid release assay (IARA) in H295R cells
Format: cell-based
Conditions: human H295R adrenocortical carcinoma cells treated three days, 3 nM [24,25-3H]-labelled cholesterol, 1% DMSO, 10 concentrations in duplicates; read-out: IC50 of the test compounds on CYP11A1 inhibition
Method in brief: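 H295R adrenocortical cells treated three days with test compounds at 10 concentrations in duplicate plus 3 nM [24,25-3H]-cholesterol, 1% DMSO final. Released radiolabelled isocaproic acid measured by scintillation counting after dextran-coated charcoal extraction; IC50 determined.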

| SMILES | IC50 [nM] |
| --- | --- |
| CS(=N)(=O)C1CCC(COc2coc(CN3Cc4ccccc4C3)cc2=O)CC1 (centres unmarked) [Compound 240, 2-(Isoindolin-2-ylmethyl)-5-((4-(S-methylsulfonimidoyl)cyclohexyl)methoxy)-4H-pyran-4-one] | 301 to 2000 |
| CS(=O)(=O)N1CCC(COc2coc(CN3Cc4ccc(Cl)cc4C3)cc2=O)CC1 [Compound 241, 2-((5-Chloroisoindolin-2-yl)methyl)-5-((1-(methylsulfonyl)piperidin-4-yl)-methoxy)-4H-pyran-4-one] | 150 to 300 |
| N=S1(=O)CCC(COc2coc(CN3Cc4ccccc4C3)cc2=O)CC1 (centres unmarked) [Compound 242, 5-((1-Imino-1-oxidohexahydro-1λ^6-thiopyran-4-yl)methoxy)-2-(isoindolin-2-ylmethyl)-4H-pyran-4-one] | 301 to 2000 |
| CC(=O)N=S1(=O)CCC(COc2coc(CN3Cc4ccccc4C3)cc2=O)CC1 (centres unmarked) [Compound 243, N-(4-(((6-(Isoindolin-2-ylmethyl)-4-oxo-4H-pyran-3-yl)oxy)methyl)-1-oxido-tetrahydro-2H-1λ^6-thiopyran-1-ylidene)acetamide] | 301 to 2000 |
| CC(=O)[C@H]1CC[C@H](COc2coc(CN3Cc4ccccc4C3)cc2=O)CC1 [Compound 244, 5-(((1r,4r)-4-Acetylcyclohexyl)methoxy)-2-(isoindolin-2-ylmethyl)-4H-pyran-4-one] | < 150 |
| CCC(=O)N1CCC(COc2coc(CN3Cc4ccc(C(F)(F)F)cc4C3)cc2=O)CC1 [Compound 244a, 5-((1-Propionylpiperidin-4-yl)methoxy)-2-((5-(trifluoromethyl)isoindolin-2-yl)methyl)-4H-pyran-4-one] | < 150 |
| CS(=O)(=O)N1CCC(COc2coc(CN3Cc4ccc(F)c(F)c4C3)cc2=O)CC1 [Compound 245, 2-((4,5-Difluoroisoindolin-2-yl)methyl)-5-((1-(methylsulfonyl)piperidin-4-yl)methoxy)-4H-pyran-4-one] | 301 to 2000 |
| CS(=O)(=O)N1CCC(COc2coc(CN3Cc4ccc(C#N)cc4C3)cc2=O)CC1 [Compound 245a, 2-((5-((1-(methylsulfonyl)piperidin-4-yl)methoxy)-4-oxo-4H-pyran-2-yl)methyl)-isoindoline-5-carbonitrile] | 301 to 2000 |
| O=c1cc(CN2Cc3ccccc3C2)occ1OCC1CCN(S(=O)(=O)CC(F)(F)F)CC1 [Compound 253] | 301 to 2000 |
| N#CCS(=O)(=O)N1CCC(COc2coc(CN3Cc4ccccc4C3)cc2=O)CC1 [Compound 254, 2-((4-(((6-(Isoindolin-2-ylmethyl)-4-oxo-4H-pyran-3-yl)oxy)methyl)piperidin-1-yl)sulfonyl)acetonitrile] | < 150 |
| Cn1nccc1S(=O)(=O)N1CCC(COc2coc(CN3Cc4ccccc4C3)cc2=O)CC1 [Compound 255, 2-(Isoindolin-2-ylmethyl)-5-((1-((1-methyl-1H-pyrazol-5-yl)sulfonyl)piperidin-4-yl)methoxy)-4H-pyran-4-one] | < 150 |
| O=c1cc(CN2Cc3ccccc3C2)occ1OCC1CCN(S(=O)(=O)c2ccc(F)cc2)CC1 [Compound 256, 5-((1-((4-Fluorophenyl)sulfonyl)piperidin-4-yl)methoxy)-2-(isoindolin-2-yl-methyl)-4H-pyran-4-one] | 150 to 300 |
| CC(=O)OCC(=O)N1CCC(COc2coc(CN3Cc4ccccc4C3)cc2=O)CC1 [Compound 257, 2-(4-(((6-(Isoindolin-2-ylmethyl)-4-oxo-4H-pyran-3-yl)oxy)methyl)piperidin-1-yl)-2-oxoethyl acetate] | < 150 |
| O=C(c1ccco1)N1CCC(COc2coc(CN3Cc4ccccc4C3)cc2=O)CC1 [Compound 260, 5-((1-(Furan-2-carbonyl)piperidin-4-yl)methoxy)-2-(isoindolin-2-ylmethyl)-4H-pyran-4-one] | 150 to 300 |
| COCCS(=O)(=O)N1CCC(COc2coc(CN3Cc4ccccc4C3)cc2=O)CC1 [Compound 262, 2-(Isoindolin-2-ylmethyl)-5-((1-((2-methoxyethyl)sulfonyl)piperidin-4-yl)-methoxy)-4H-pyran-4-one] | < 150 |
| Nc1cccc(COc2coc(CN3Cc4ccccc4C3)cc2=O)c1 [Compound 263, 5-((3-Aminobenzyl)oxy)-2-(isoindolin-2-ylmethyl)-4H-pyran-4-one] | 301 to 2000 |
| O=c1cc(CN2Cc3ccccc3C2)occ1OCC1CCN(S(=O)(=O)N2CCCC2)CC1 [Compound 267, 2-(Isoindolin-2-ylmethyl)-5-((1-(pyrrolidin-1-ylsulfonyl)piperidin-4-yl)methoxy)-4H-pyran-4-one] | 150 to 300 |
| O=c1cc(CN2Cc3ccccc3C2)occ1OCC1CCN(S(=O)(=O)N2CCC2)CC1 [Compound 268, 5-((1-(Azetidin-1-ylsulfonyl)piperidin-4-yl)methoxy)-2-(isoindolin-2-ylmethyl)-4H-pyran-4-one] | 150 to 300 |
| CC(C)S(=O)(=O)N1CCC(COc2coc(CN3Cc4ccccc4C3)cc2=O)CC1 [Compound 270, 2-(Isoindolin-2-ylmethyl)-5-((1-(isopropylsulfonyl)piperidin-4-yl)methoxy)-4H-pyran-4-one] | 150 to 300 |
| CC(C)CS(=O)(=O)N1CCC(COc2coc(CN3Cc4ccccc4C3)cc2=O)CC1 [Compound 271, 5-((1-(Isobutylsulfonyl)piperidin-4-yl)methoxy)-2-(isoindolin-2-ylmethyl)-4H-pyran-4-one] | < 150 |
| CS(=O)(=O)N1CC[C@@H](COc2coc(CN3Cc4ccccc4C3)cc2=O)C1 [Compound 277, (R)-2-(Isoindolin-2-ylmethyl)-5-((1-(methylsulfonyl)pyrrolidin-3-yl)methoxy)-4H-pyran-4-one] | 301 to 2000 |
| N#Cc1ccc(COc2coc(CN3Cc4ccc(Br)cc4C3)cc2=O)cc1 [Compound 278, 4-((6-((5-Bromoisoindolin-2-yl)methyl)-4-oxo-4H-pyran-3-yloxy)methyl)benzonitrile] | < 150 |
| Cc1ccc2c(c1)CN(Cc1cc(=O)c(OCc3ccc(S(C)(=O)=O)cc3)co1)C2 [Compound 279, 2-((5-Methylisoindolin-2-yl)methyl)-5-((4-(methylsulfonyl)benzyl)oxy)-4H-pyran-4-one] | 150 to 300 |
| CSc1ccc2c(c1)CN(Cc1cc(=O)c(OCc3ccc(S(C)(=O)=O)cc3)co1)C2 [Compound 280, 5-((4-(Methylsulfonyl)benzyl)oxy)-2-((5-(methylthio)isoindolin-2-yl)methyl)-4H-pyran-4-one] | 150 to 300 |

The remaining lines, values ahead:

| IC50 [nM] | SMILES |
| --- | --- |
| 150 to 300 | O=C(NC1CC1)N1CCC(COc2coc(CN3Cc4ccccc4C3)cc2=O)CC1 [Compound 247, N-Cyclopropyl-4-(((6-(isoindolin-2-ylmethyl)-4-oxo-4H-pyran-3-yl)oxy)-methyl)piperidine-1-carboxamide] |
| 150 to 300 | CC(C)(C)NC(=O)N1CCC(COc2coc(CN3Cc4ccccc4C3)cc2=O)CC1 [Compound 248, N-(tert-Butyl)-4-(((6-(isoindolin-2-ylmethyl)-4-oxo-4H-pyran-3-yl)oxy)-methyl)piperidine-1-carboxamide] |
| < 150 | CC(C)CC(=O)C(=O)N1CCC(COc2coc(CN3Cc4ccccc4C3)cc2=O)CC1 [Compound 249, 1-(4-(((6-(Isoindolin-2-ylmethyl)-4-oxo-4H-pyran-3-yl)oxy)methyl)piperidin-1-yl)-4-methylpentane-1,2-dione] |
| 150 to 300 | CNC(=S)N1CCC(COc2coc(CN3Cc4ccccc4C3)cc2=O)CC1 [Compound 250, 4-(((6-(Isoindolin-2-ylmethyl)-4-oxo-4H-pyran-3-yl)oxy)methyl)-N-methyl-piperidine-1-carbothioamide] |
| < 150 | CC(C)(C)C(=O)N1CCC(COc2coc(CN3Cc4ccccc4C3)cc2=O)CC1 [Compound 251, 2-(Isoindolin-2-ylmethyl)-5-((1-pivaloylpiperidin-4-yl)methoxy)-4H-pyran-4-one] |
| 150 to 300 | CC(=O)N1CCC(COc2coc(CN3Cc4ccccc4C3)cc2=O)CC1 [Compound 252, 5-((1-Acetylpiperidin-4-yl)methoxy)-2-(isoindolin-2-ylmethyl)-4H-pyran-4-one] |
| 150 to 300 | C=CC(=O)N1CCC(COc2coc(CN3Cc4ccccc4C3)cc2=O)CC1 [Compound 258, 5-((1-Acryloylpiperidin-4-yl)methoxy)-2-(isoindolin-2-ylmethyl)-4H-pyran-4-one] |
| < 150 | CCC(=O)N1CCC(COc2coc(CN3Cc4ccccc4C3)cc2=O)CC1 [Compound 261, 2-(Isoindolin-2-ylmethyl)-5-((1-propionylpiperidin-4-yl)methoxy)-4H-pyran-4-one] |
| 150 to 300 | CCOC(=O)C(=O)N1CCC(COc2coc(CN3Cc4ccccc4C3)cc2=O)CC1 [Compound 269, Ethyl 2-(4-(((6-(isoindolin-2-ylmethyl)-4-oxo-4H-pyran-3-yl)oxy)methyl)-piperidin-1-yl)-2-oxoacetate] |
| < 150 | CC(C)C(=O)N1CCC(COc2coc(CN3Cc4ccccc4C3)cc2=O)CC1 [Compound 272, 5-((1-Isobutyrylpiperidin-4-yl)methoxy)-2-(isoindolin-2-ylmethyl)-4H-pyran-4-one] |
| 150 to 300 | O=C(N1CCC(COc2coc(CN3Cc4ccccc4C3)cc2=O)CC1)C(F)(F)F [Compound 273, 2-(Isoindolin-2-ylmethyl)-5-((1-(2,2,2-trifluoroacetyl)piperidin-4-yl)methoxy)-4H-pyran-4-one] |
